The results in this text go back to patent US8809619B2, “Knockout mice for a P450 gene cluster” (ITI Scotland Limited, priority 2007, dated 2014).

The structures appear in SMILES notation. Entries after “also recorded” stand apart in the source; their conditions may differ.

Data set [1] in a line: 1'-Hydroxymidazolam pharmacokinetics after IV or oral midazolam. The following applies: for Decrease in AUC for 1'-hydroxymidazolam compared to wild type: midazolam 1 mg/kg IV, rifampicin pre-treated. As to the method:
On day 4 of the study midazolam (1 mg/kg) was administered by IV injection to animals from groups 1-6 and orally (2 mg/kg) to mice from groups 7-9. Blood samples were collected at 2, 5, 10, 20, 30, 45, 60, 90, 120 and 150 min (serial bleeds) after IV dosing, at 10, 20, 40, 60, 90, 120, 240 and 360 min after the oral dosing, for PK analysis (Table 3).
Total concentrations of 1′-hydroxymidazolam were measured following pre-treatment of blood with B-glucuronidase. The pharmacokinetics of the 1′-hydroxymidazolam after the IV injection of the parent compound are presented on FIG. 1s.

Data set [2] concerns Cyp3a. Put plainly: Oxidation of BFC by liver and intestinal microsomes. Type of data set: in vitro ADME, mouse.
Data set [3] has as its system Cyp3a. Briefly: Oxidation of DBF by liver and intestinal microsomes.
In the next data set the test system is Cyp1a1 and Cyp1a2. Briefly: Ethoxyresorufin de-ethylation activity (EROD) of liver microsomes. The class given is in vivo, mouse. Particulars: both strains. The source says: (B)—Ethoxyresorufin de-ethylation; (C)—methoxyresorufin de-methylation. Data are mean±SD (n=4).
Ethoxyresorufin de-ethylation activity (EROD) was similar in both Cyp3a cluster KO and wild type mouse liver microsomes. EROD is catalysed by both Cyp1a 1 and Cyp1a2 isoforms, with Cyp1a1 making the major contribution. […] There was no difference in methoxyresoryfin de-methylation (MROD) activity between wild type and Cyp3a cluster KO mice. MROD is catalysed predominantly by Cyp1a2.

How the values of data set [4] were obtained: The study consisted of 4 groups with 4 animals per group. […] On day 4 of the study midazolam (1 mg/kg) was administered by IP injection and 10 μL blood samples were collected at 10, 20, 40, 60, 120, 240 and 360 min for PK analysis (Table 1).
A further data set has as its system Cyp2b10 and Cyp2c29. Put plainly: 16β-Hydroxylation of testosterone by liver microsomes. Particulars: liver microsomes of both transgenic strains.
In data set [5] the test system is Cyp3a. Briefly: 6β-Hydroxylation of testosterone by liver and intestinal microsomes. Particulars: Cyp3a cluster KO and Cyp3a11 KO.
In data set [6] the test system is Cyp3a. Put plainly: Oxidation of 7-BQ by liver microsomes.

In the case of `OCc1ncc2n1-c1ccc(Cl)cc1C(c1ccccc1F)=NC2` [1′-hydroxymidazolam], the “Decrease in AUC for 1'-hydroxymidazolam compared to wild type” value in data set [1] (Cyp3a11 KO) is given as around 2 times; in data set [1] (Cyp3a cluster KO), around 3 times. For the same compound, the “Terminal phase elimination of 1'-hydroxymidazolam compared to other strains” value in data set [1] (Cyp3a cluster KO, midazolam IV) is “slightly slower elimination”.

On to `O=c1cc(C(F)(F)F)c2ccc(OCc3ccccc3)cc2o1` [BFC, 7-benzyloxy-4-trifluoromethylcoumarin], for which, in the data set on Cyp3a [2] (C57BL/6J, Cyp3a cluster KO, Cyp3a11 KO liver microsomes), the “BFC activity between liver microsomal samples” value is “no difference”. Besides, the “BFC oxidation in intestinal microsomes of transgenic mice” value in the data set with Cyp3a [2] (intestinal microsomes) was “small but statistically significant increase”.

For `O=C(OCc1ccccc1)c1ccccc1-c1c2ccc(=O)cc-2oc2cc(OCc3ccccc3)ccc12` [DBF, dibenzylfluorescein], the “DBF oxidation by liver microsomes compared to wild type” value in the data set with Cyp3a [3] (Cyp3a cluster KO and Cyp3a11 KO) is reported as “pronounced decrease”. The “DBF oxidation by intestinal microsomes, wild type vs knockout strains” value with Cyp3a [3] (intestinal microsomes) is recorded as “no statistically significant difference”.

For the compound `CO[C@H]1/C=C/O[C@@]2(C)Oc3c(C)c(O)c4c(O)c(c(/C=N/N5CCN(C)CC5)c(O)c4c3C2=O)NC(=O)/C(C)=C\C=C\[C@H](C)[C@H](O)[C@@H](C)[C@@H](O)[C@@H](C)[C@H](OC(C)=O)[C@@H]1C` [rifampicin], the “EROD metabolism after rifampicin” value in the data set on Cyp1a1 and Cyp1a2 is “small induction”. Also, the “Effect of rifampicin treatment on midazolam elimination” value in data set [4] (rifampicin 60 mg/kg 3 daily doses, midazolam 1 mg/kg IP day 4, both strains, higher effect in C57BL/6J) is “accelerated elimination”.

Regarding `C[C@]12CC[C@H]3[C@@H](CCC4=CC(=O)CC[C@@]43C)[C@@H]1CC[C@@H]2O` [testosterone], the “16β-Hydroxylation of testosterone compared to wild type” value in the data set with Cyp2b10 and Cyp2c29 is “increased”. The “6β-hydroxylation of testosterone compared to wild type” value with Cyp3a [5] is recorded as “significant decrease”.

`c1ccc(COc2ccc3cccnc3c2)cc1` [7-BQ, 7-benzyloxyquinoline]: the “Activity towards 7-BQ in Cyp3a cluster KO, level compared to the wild type mice” value with Cyp3a [6] (conclusion statement) is reported as “below 20%”. The “7-BQ oxidation in Cyp3a cluster KO liver microsomes, % of corresponding C57BL/6J group” value turned out to be 18% in the data set with Cyp3a [6] (control animals) and 6.7% with Cyp3a [6] (rifampicin treated animals).

Consider `Cc1ncc2n1-c1ccc(Cl)cc1C(c1ccccc1F)=NC2` [midazolam], for which the “Absorption after IP administration” value in data set [4] (midazolam 1 mg/kg IP, both mouse strains) is “fast absorption”. For the same compound, in data set [4] (midazolam 1 mg/kg IP, control (untreated) animals), the “Midazolam AUC / PK, Cyp3a cluster KO compared to wild type” value is “similar; also recorded: no difference”. In addition, in data set [4] (rifampicin treated mice), the “Difference in midazolam AUC, Cyp3a cluster KO vs wild type” value was 1.6 times.
